# Measured values as given in paper PMC11731290, “Highly Active Oligoethylene Glycol Pleuromutilins via Systematic Linker Synthesis/One-Pot Attachment and a Microscale Solubility Method” (The Journal of Organic Chemistry, 2024).
# Where two headings read alike, the source gives them in different places.
# How the values were obtained:
# [1] = system: methicillin-resistant S. aureus (MRSA) ATCC 43300; assay: Broth microdilution MIC, MRSA 43300; assay type: cell-based, Staphylococcus aureus; conditions: for MIC: Staphylococcus aureus, read-out: Minimum inhibitory concentration, MRSA 43300; for improvement in activity relative to pleuromutilin (1): Gram-positive bacteria (S. aureus strains), MIC ratio to 1
# S. aureus 6538P = assay: Broth microdilution MIC, S. aureus 6538P; assay type: cell-based; conditions: Staphylococcus aureus, read-out: Minimum inhibitory concentration, S. aureus 6538P
# [2] = system: vancomycin-resistant Enterococcus (VRE); assay: Broth microdilution MIC, VRE; assay type: cell-based; conditions: for MIC: Enterococcus, VRE, 24 h, read-out: Minimum inhibitory concentration, VRE
# E. coli MC1061 = assay: Broth microdilution MIC, E. coli MC1061; assay type: cell-based; conditions: Escherichia coli
# E. coli ΔTolC = assay: Broth microdilution MIC, E. coli ΔTolC; assay type: cell-based; conditions: Escherichia coli, read-out: Minimum inhibitory concentration, E. coli ΔTolC
# [3] = parameters: method as in earlier work; conditions: cited from earlier work
# [4] = Microscale solubility by optical density (plate reader); conditions: 37 °C, aqueous buffer, kinetic from dmso stock
# [5] = broth microdilution, 37 °C, 16–18 h, MIC = lowest concentration inhibiting >90% of growth
# [6] = broth microdilution, 37 °C, MIC = lowest concentration inhibiting >90% of growth
# [7] = MC1061, broth microdilution, 37 °C, 16–18 h, MIC = lowest concentration inhibiting >90% of growth, read-out: Minimum inhibitory concentration, E. coli MC1061
Compound,MIC [1],MIC (S. aureus 6538P),MIC [2],"MIC (E. coli MC1061; MC1061, read-out: Minimum inhibitory concentration, E. coli MC1061)",MIC (E. coli ΔTolC),water solubility [3],solubility at 1 day [4],"MIC [1, 5]",MIC (S. aureus 6538P; [5]),"MIC [2, 6]",MIC (E. coli MC1061; [7]),improvement in activity relative to pleuromutilin (1) [1],"potency compared to 1, VRE ([2]; MIC ratio to 1)"
"C=C[C@]1(C)C[C@@H](OC(=O)CO)[C@]2(C)[C@H](C)CC[C@]3(CCC(=O)[C@H]32)[C@@H](C)[C@@H]1O [compound 1, Pleuromutilin]",3.12 µM,3.12 µM,12.5 µM,3.12 µM,3.12 µM,20 µg/mL,50 to 100 µM,,,,,,
C=C[C@]1(C)C[C@@H](OC(=O)CSCCO)[C@]2(C)[C@H](C)CC[C@]3(CCC(=O)[C@H]32)[C@@H](C)[C@@H]1O [compound 25],,,,,0.391 µM,,> 200 µM,0.781 µM,0.781 µM,3.12 µM,3.12 µM,,
C=C[C@]1(C)C[C@@H](OC(=O)CSCCN=[N+]=[N-])[C@]2(C)[C@H](C)CC[C@]3(CCC(=O)[C@H]32)[C@@H](C)[C@@H]1O [compound 28],,,,,0.195 µM,,25 to 50 µM,0.391 µM,0.391 µM,1.56 µM,12.5 µM,8 fold,8 fold
C=C[C@]1(C)C[C@@H](OC(=O)CSCCOCCN=[N+]=[N-])[C@]2(C)[C@H](C)CC[C@]3(CCC(=O)[C@H]32)[C@@H](C)[C@@H]1O [compound 29],0.391 µM,,,,0.391 µM,,25 to 50 µM,,0.781 µM,3.12 µM,25 µM,8 fold,
C=C[C@]1(C)C[C@@H](OC(=O)CSCCOCCOCCN=[N+]=[N-])[C@]2(C)[C@H](C)CC[C@]3(CCC(=O)[C@H]32)[C@@H](C)[C@@H]1O [compound 30],,,,,0.391 µM,,50 to 100 µM,0.781 µM,0.781 µM,3.12 µM,25 µM,,
C=C[C@]1(C)C[C@@H](OC(=O)CSCCOCCOCCOCCN=[N+]=[N-])[C@]2(C)[C@H](C)CC[C@]3(CCC(=O)[C@H]32)[C@@H](C)[C@@H]1O [compound 31],,,,,0.391 µM,,100 to 200 µM,0.781 µM,0.781 µM,3.12 µM,50 µM,,
C=C[C@]1(C)C[C@@H](OC(=O)CSCCOCCOCCOCCOCCN=[N+]=[N-])[C@]2(C)[C@H](C)CC[C@]3(CCC(=O)[C@H]32)[C@@H](C)[C@@H]1O [compound 32],,,,,0.391 µM,,100 to 200 µM,0.781 µM,0.781 µM,3.12 µM,25 µM,,
C=C[C@]1(C)C[C@@H](OC(=O)CSCCOCCO)[C@]2(C)[C@H](C)CC[C@]3(CCC(=O)[C@H]32)[C@@H](C)[C@@H]1O [compound 43],,,,,0.391 µM,,> 200 µM,0.781 µM,0.781 µM,3.12 µM,6.25 µM,,
C=C[C@]1(C)C[C@@H](OC(=O)CSCCOCCOCCO)[C@]2(C)[C@H](C)CC[C@]3(CCC(=O)[C@H]32)[C@@H](C)[C@@H]1O [compound 44],,,,,0.391 µM,,> 200 µM,1.56 µM,0.781 µM,3.12 µM,12.5 µM,,
C=C[C@]1(C)C[C@@H](OC(=O)CSCCOCCOCCOCCO)[C@]2(C)[C@H](C)CC[C@]3(CCC(=O)[C@H]32)[C@@H](C)[C@@H]1O [compound 45],,0.781 µM,,,0.781 µM,,> 200 µM,1.56 µM,,3.12 µM,12.5 µM,,
C=C[C@]1(C)C[C@@H](OC(=O)CSCCOCCOCCOCCOCCO)[C@]2(C)[C@H](C)CC[C@]3(CCC(=O)[C@H]32)[C@@H](C)[C@@H]1O [compound 46],,0.781 µM,,,0.781 µM,,> 200 µM,1.56 µM,,3.12 µM,12.5 µM,,
C=C[C@]1(C)C[C@@H](OC(=O)CSCCOCCOCCOCCOCCOCCO)[C@]2(C)[C@H](C)CC[C@]3(CCC(=O)[C@H]32)[C@@H](C)[C@@H]1O [compound 47],,0.781 µM,,,0.781 µM,,> 200 µM,1.56 µM,,3.12 µM,25 µM,,
C=C[C@]1(C)C[C@@H](OC(=O)CSCCOCCOCCOCCOCCOCCOCCOCCO)[C@]2(C)[C@H](C)CC[C@]3(CCC(=O)[C@H]32)[C@@H](C)[C@@H]1O [compound 48],,1.56 µM,,,1.56 µM,,> 200 µM,3.12 µM,,3.12 µM,25 µM,,
